Patent publication US8361995B2, “Drug comprising at least one gestagen” (Richter Gedeon Nyrt., priority 2007, dated 2013)

Assays:
human melanocytes = test: proliferation of human melanocytes cultured with hormones (cell counting, proliferation and apoptosis tests); type: cell-based; conditions: analysed after 9 days
Description: In a series of experiments, the influence of chlormadinone acetate (CMA) on the proliferation or pigment formation of human melanocytes was examined. To this end, human melanocytes were cultured in each case in the corresponding culture medium, which in each case contained different quantities of ethinyl oestradiol (EO), chlormadinone acetate (CMA) or a combination thereof. The individual compositions are summarised below in Table 1. [table] After 9 days the human melanocytes were analysed in vitro. Cell growth and cell death were determined by cell counting by means of Typan blue staining and by commercial cell proliferation and apoptosis tests. Pigment formation was determined both by measuring the melanin concentration of the cells and by measuring tyrosinase, the key enzyme in pigment formation.

tyrosinase = test: pigment formation of human melanocytes: tyrosinase activity; type: cell-based; conditions: 1 nM as the sole hormone in the culture medium; analysed after 9 days
Description: In a series of experiments, the influence of chlormadinone acetate (CMA) on the proliferation or pigment formation of human melanocytes was examined.
To this end, human melanocytes were cultured in each case in the corresponding culture medium, which in each case contained different quantities of ethinyl oestradiol (EO), chlormadinone acetate (CMA) or a combination thereof. The individual compositions are summarised below in Table 1.
After 9 days the human melanocytes were analysed in vitro. Cell growth and cell death were determined by cell counting by means of Typan blue staining and by commercial cell proliferation and apoptosis tests. Pigment formation was determined both by measuring the melanin concentration of the cells and by measuring tyrosinase, the key enzyme in pigment formation.

SMILES | reduction of the proliferation rate of human melanocytes (human melanocytes; 100 nM in the culture medium) | proliferation of human melanocytes (human melanocytes; 1 nM as the sole hormone in the culture medium) | tyrosinase activity of human melanocytes (tyrosinase)
CC(=O)O[C@]1(C(C)=O)CC[C@H]2[C@@H]3C=C(Cl)C4=CC(=O)CC[C@]4(C)[C@H]3CC[C@@]21C [chlormadinone acetate] | 50-70% |  | 
C#C[C@]1(O)CC[C@H]2[C@@H]3CCc4cc(O)ccc4[C@H]3CC[C@@]21C [ethinyl oestradiol] |  | increased | increased
